Results from ChEMBL document CHEMBL3797202, “Novel Oxindole Sulfonamides and Sulfamides: EPZ031686, the First Orally Bioavailable Small Molecule SMYD3 Inhibitor” (ACS Med Chem Lett, 2016).

Tests used:
[1] = molecular target: T1, Histone-lysine N-methyltransferase SMYD3 (Homo sapiens, UniProt Q9H7B4); assay: Inhibition of human SMYD3 expressed in HEK293T/17 cells using FLAG-tagged MEKK2 as substrate incubated for 30 mins in low air flow area followed by incubation for 24 hrs at 37 degC by Western blot analysis; assay type: cell-based, HEK-293T
T1 sequence (Q9H7B4 whole entry): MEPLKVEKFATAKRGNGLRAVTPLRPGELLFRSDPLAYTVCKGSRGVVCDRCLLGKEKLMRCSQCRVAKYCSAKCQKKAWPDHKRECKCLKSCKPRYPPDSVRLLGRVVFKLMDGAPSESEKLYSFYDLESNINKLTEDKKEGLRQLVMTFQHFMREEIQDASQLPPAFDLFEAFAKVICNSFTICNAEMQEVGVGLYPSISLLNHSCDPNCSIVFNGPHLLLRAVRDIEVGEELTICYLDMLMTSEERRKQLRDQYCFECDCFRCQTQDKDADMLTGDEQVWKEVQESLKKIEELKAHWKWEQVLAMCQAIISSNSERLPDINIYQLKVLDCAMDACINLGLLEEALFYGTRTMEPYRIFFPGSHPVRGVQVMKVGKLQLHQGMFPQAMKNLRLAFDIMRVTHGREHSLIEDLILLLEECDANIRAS

[2] = molecular target: T1, Histone-lysine N-methyltransferase SMYD3; assay: Inhibition of full length N-terminal His-tagged SMYD3 (1 to 428 residues) (unknown origin) expressed in Escherichia coli using N-terminal GST-tagged MEKK2 as substrate preincubated for 30 mins followed by substrate addition by scintillation proximity assay in presence of [3H]SAM

SMILES	IC50 [1]	IC50 [2]
O=C1Cc2cc(C(=O)NC3CCN(S(=O)(=O)CC4CCNCC4)CC3)ccc2N1	> 10000 nM	70 nM
NCCCS(=O)(=O)N1CCC(NC(=O)c2cc3c(cc2Cl)NC(=O)C3)CC1	–	80 nM
CN(C)C1CCN(S(=O)(=O)N2[C@@H]3CC[C@H]2C[C@@H](NC(=O)c2cc4c(cc2Cl)NC(=O)C4)C3)CC1	–	3 nM
CNC1CCN(S(=O)(=O)N2[C@@H]3CC[C@H]2C[C@@H](NC(=O)c2cc4c(cc2Cl)NC(=O)C4)C3)CC1	–	2 nM
NC1CCN(S(=O)(=O)N2[C@@H]3CC[C@H]2C[C@@H](NC(=O)c2ccc4c(c2)CC(=O)N4)C3)CC1	–	1 nM
NC1CCN(S(=O)(=O)N2[C@@H]3CC[C@H]2C[C@@H](NC(=O)c2cc4c(cc2Cl)NC(=O)C4)C3)CC1	1100 nM	1 nM
Cc1cc2c(cc1C(=O)N[C@H]1C[C@H]3CC[C@@H](C1)N3S(=O)(=O)N1CCC(N)CC1)CC(=O)N2	410 nM	–
O=C1Cc2cc(C(=O)N[C@H]3C[C@H]4CC[C@@H](C3)N4S(=O)(=O)CC3CCN(CCCO)CC3)c(Cl)cc2N1	–	2 nM
NCCCS(=O)(=O)N1CCC(NC(=O)c2ccc3c(c2)CC(=O)N3)CC1	> 10000 nM	–
N[C@H]1CC[C@H](S(=O)(=O)N2[C@@H]3CC[C@H]2C[C@@H](NC(=O)c2ccc4c(c2)CC(=O)N4)C3)CC1	2200 nM	4 nM
CN1CCC(CS(=O)(=O)N2[C@@H]3CC[C@H]2C[C@@H](NC(=O)c2ccc4c(c2)CC(=O)N4)C3)CC1	–	1 nM
NC1CCN(S(=O)(=O)N2[C@@H]3CC[C@H]2C[C@@H](NC(=O)c2cc4c(cc2F)NC(=O)C4)C3)CC1	–	5 nM
O=C1Cc2cc(C(=O)N[C@H]3C[C@H]4CC[C@@H](C3)N4S(=O)(=O)C[C@H]3CCCNC3)c(Cl)cc2N1	1300 nM	4 nM
O=C1Cc2cc(C(=O)N[C@H]3C[C@H]4CC[C@@H](C3)N4S(=O)(=O)CC3CCNCC3)c(Cl)cc2N1	3200 nM	4 nM
